Test system: sensitive M bovis strain
Format: cell-based, Mycobacterium bovis BCG

NNC(=O)c1ccncc1 [INH, isoniazid]
stress response (Impedance Response profile): varies with the drug concentration

— patent US8364409B2 (priority 2006, dated 2013)
